Data published in the NIST ThermoML archive (doi:10.1021/je8004613).

How the values were obtained:
[1] = 101.33 kPa, Liquid; for speed of sound: Pulse-echo method; for mass density: Vibrating tube method
[2] = excess molar enthalpy (molar enthalpy of mixing); xn = mol fraction of the nth substance listed; conditions: 298.15 K, 101 kPa, Liquid

CCCCCCCC [octane]
[1]
Conditions | mass density [kg/m3] | speed of sound [m/s]
288.15 K | 706.58 | 1213.6
293.15 K | 702.57 | 1193
298.15 K | 698.55 | 1171.9
303.15 K | 694.48 | 1151
308.15 K | 690.42 | 1130.3

CCCCCCCC [octane] + CCCCO
[2]
Conditions | excess molar enthalpy [kcal/mol]
x2 = 0.03632 | 0.0772
x2 = 0.0645 | 0.102
x2 = 0.1182 | 0.128
x2 = 0.1568 | 0.137
x2 = 0.2031 | 0.152
x2 = 0.2488 | 0.158
x2 = 0.299 | 0.163
x2 = 0.345 | 0.164
x2 = 0.4028 | 0.163
x2 = 0.4499 | 0.16
x2 = 0.5029 | 0.152
x2 = 0.6034 | 0.134
x2 = 0.6988 | 0.112
x2 = 0.7979 | 0.0817
x2 = 0.9005 | 0.0435
x2 = 0.9493 | 0.0225
